Data: article PMC8286840, “Identifying SARS-CoV-2 antiviral compounds by screening for small molecule inhibitors of Nsp3 papain-like protease” (Biochemical Journal, 2021)
Structures can show the parent of a compound that is named as a salt. Where two headings read alike, the source gives them in different places.

Key:
[1] = molecular target: T1, SARS-CoV-2 PLpro (nsp3 1564–1878) (Severe acute respiratory syndrome coronavirus 2, UniProt P0DTD1); test: biochemical; parameters: FRET-quenched peptide (Pro3) cleavage by PLpro, 10 min pre-incubation, slope over 20 min, normalised to no-compound control; conditions: low concentration screen, read-out: % of control remaining
[2] = molecular target: T1, SARS-CoV-2 PLpro (nsp3 1564–1878); test: biochemical; parameters: FRET-quenched peptide (Pro3) cleavage by PLpro, 10 min pre-incubation, slope over 20 min, normalised to no-compound control; conditions: high concentration screen, read-out: % of control remaining

CCCC(=O)OCC[N+](C)(C)C [Butyrylcholine]
remaining activity at 1.25 µM ([1]; Well no.=1738): 103% | remaining activity at 3.75 µM ([2]; Well no.=1738): 100%

CCCCCCCCCCCCCCCCCCOCC(COP(=O)([O-])OCC[N+](C)(C)C)OC (centres unmarked) [ET-18-OCH3]
remaining activity at 1.25 µM ([1]; Well no.=502): 104% | remaining activity at 3.75 µM ([2]; Well no.=502): 102%

C[C@]12CCC(=O)C=C1CC[C@@H]1[C@@H]2[C@@H](O)C[C@@]2(C)[C@H]1CC[C@]2(O)C(=O)COC(=O)CCC(=O)O [Hydrocortisone 21-hemisuccinate sodium]
remaining activity at 1.25 µM ([1]; Well no.=704): 92.7% | remaining activity at 3.75 µM ([2]; Well no.=704): 93.3%

CCCCCCCC/C=C\CCCCCCCC(=O)NCCc1ccc(O)c(O)c1 [Oleoyl dopamine]
remaining activity at 1.25 µM ([1]; Well no.=4539): 95.5% | remaining activity at 3.75 µM ([2]; Well no.=4539): 100%

O=C(O)c1cc(=O)c2c(OCC(O)COc3cccc4oc(C(=O)O)cc(=O)c34)cccc2o1 [Disodium Cromoglycate]
remaining activity at 1.25 µM ([1]; Well no.=1857): 102% | remaining activity at 3.75 µM ([2]; Well no.=1857): 100%

Cc1cc2nc(NCCCO)n(CC(=O)c3cc(C(C)(C)C)c(O)c(C(C)(C)C)c3)c2cc1C [CID2858522]
remaining activity at 1.25 µM ([1]; Well no.=5503): 104% | remaining activity at 3.75 µM ([2]; Well no.=5503): 109%

Nc1ccn([C@H]2CC[C@@H](CO)O2)c(=O)n1 ["2',3' - Dideoxycytidine"]
remaining activity at 1.25 µM ([1]; Well no.=1980): 103% | remaining activity at 3.75 µM ([2]; Well no.=1980): 102%

OC(CCCN1CCCCC1)(c1ccccc1)c1ccccc1 [Diphenidol (hydrochloride)]
remaining activity at 1.25 µM ([1]; Well no.=7621): 102% | remaining activity at 3.75 µM ([2]; Well no.=7621): 102%

COC(=O)/C=C/c1cc(O)ccc1O [2,5-Dihydroxycinnamic acid methyl ester]
remaining activity at 1.25 µM ([1]; Well no.=495): 103% | remaining activity at 3.75 µM ([2]; Well no.=495): 106%

CCC(=O)OCC(=O)[C@@]1(OC(=O)CC)[C@@H](C)C[C@H]2[C@@H]3CCC4=CC(=O)C=C[C@]4(C)[C@@]3(Cl)[C@@H](O)C[C@@]21C [Beclometasone dipropionate]
remaining activity at 1.25 µM ([1]; Well no.=7615): 101% | remaining activity at 3.75 µM ([2]; Well no.=7615): 96.1%

COC(=O)[C@H](CC(C)C)NC(=O)c1ccc(NC[C@@H](N)CS)cc1-c1cccc2ccccc12 [GGTI298]
remaining activity at 1.25 µM ([1]; Well no.=8076): 106% | remaining activity at 3.75 µM ([2]; Well no.=8076): 101%

OC[C@@H](O)[C@H](O)[C@H](O)[C@@H](O)CO [Dulcite]
remaining activity at 1.25 µM ([1]; Well no.=6883): 99.2% | remaining activity at 3.75 µM ([2]; Well no.=6883): 94.4%

COc1cc2c(cc1O)C[C@H]1c3c(cc(O)c(OC)c3-2)CCN1C [Boldine]
remaining activity at 1.25 µM ([1]; Well no.=3166): 102% | remaining activity at 3.75 µM ([2]; Well no.=3166): 101%

CC(=O)/N=c1/sc(S(N)(=O)=O)nn1C [Methazolamide]
remaining activity at 1.25 µM ([1]; Well no.=4686): 100% | remaining activity at 3.75 µM ([2]; Well no.=4686): 98.7%

COc1ccc2c(c1)[C@]13CCCC[C@@H]1[C@H](C2)N(C)CC3 [Dextromethorphan (hydrobromide hydrate)]
remaining activity at 1.25 µM ([1]; Well no.=8295): 101% | remaining activity at 3.75 µM ([2]; Well no.=8295): 96.5%

COC1(C2=NCCN2)COc2ccccc2O1 (centres unmarked) [RX 821002 hydrochloride]
remaining activity at 1.25 µM ([1]; Well no.=1208): 100% | remaining activity at 3.75 µM ([2]; Well no.=1208): 98.7%

CC(C)NC[C@H](O)c1ccc(O)c(O)c1 [(-)-Isoproterenol hydrochloride]
remaining activity at 1.25 µM ([1]; Well no.=917): 107% | remaining activity at 3.75 µM ([2]; Well no.=917): 106%

Cn1cc(C2=C(c3cn(CCCSC(=N)N)c4ccccc34)C(=O)NC2=O)c2ccccc21 [Ro-31-8220]
remaining activity at 1.25 µM ([1]; Well no.=2633): 98.6% | remaining activity at 3.75 µM ([2]; Well no.=2633): 96.9%

O=C(O)/C=C/C(=O)O [Fumaric acid]
remaining activity at 1.25 µM ([1]; Well no.=6539): 101% | remaining activity at 3.75 µM ([2]; Well no.=6539): 82.4%

Cc1ccc(NC(=O)CCCCCC(=O)Nc2ccccc2N)cc1 [Pimelic Diphenylamide 106]
remaining activity at 1.25 µM ([1]; Well no.=5991): 101% | remaining activity at 3.75 µM ([2]; Well no.=5991): 99.4%

COc1cc(CCC(=O)CC(=O)CCc2ccc(O)c(OC)c2)ccc1O [Tetrahydrocurcumin]
remaining activity at 1.25 µM ([1]; Well no.=6199): 104% | remaining activity at 3.75 µM ([2]; Well no.=6199): 107%

O=c1cc(-c2ccccc2)oc2cc(O)c(O)c(O)c12 [Baicalein]
remaining activity at 1.25 µM ([1]; Well no.=3087): 103% | remaining activity at 1.25 µM ([1]; Well no.=3942): 108% | remaining activity at 3.75 µM ([2]; Well no.=3087): 101% | remaining activity at 3.75 µM ([2]; Well no.=3942): 104%

CC(C)NC[C@@H](C(=O)N1CCN(c2ncnc3c2[C@H](C)C[C@H]3O)CC1)c1ccc(Cl)cc1 [GDC-0068]
remaining activity at 1.25 µM ([1]; Well no.=5131): 104% | remaining activity at 3.75 µM ([2]; Well no.=5131): 106%

O=C(O[C@H]1C[C@H]2CC[C@@H](C1)[N+]21CCCC1)C(O)(c1ccccc1)c1ccccc1 [Trospium chloride (Sanctura)]
remaining activity at 1.25 µM ([1]; Well no.=4916): 97.3% | remaining activity at 3.75 µM ([2]; Well no.=4916): 90.4%

CC1(C)CNc2cc(NC(=O)c3cccnc3NCc3ccncc3)ccc21 [Motesanib]
remaining activity at 1.25 µM ([1]; Well no.=2697): 104% | remaining activity at 3.75 µM ([2]; Well no.=2697): 103%

CN(C)CCC(c1ccc(Br)cc1)c1ccccn1 (centres unmarked) [Brompheniramine]
remaining activity at 1.25 µM ([1]; Well no.=5292): 99% | remaining activity at 3.75 µM ([2]; Well no.=5292): 96.1%

O=c1cc(CO)occ1O [5-hydroxy-2-(hydroxymethyl)-4H-pyran-4-one]
remaining activity at 1.25 µM ([1]; Well no.=5437): 109% | remaining activity at 3.75 µM ([2]; Well no.=5437): 113%

COc1cc(Oc2ccnc3cc(OC)c(OC)cc23)ccc1NC(=O)NC(C)c1nccs1 (centres unmarked) [Ki20227]
remaining activity at 1.25 µM ([1]; Well no.=2935): 98.2% | remaining activity at 3.75 µM ([2]; Well no.=2935): 102%

O=c1c(-c2ccc(O)cc2)coc2cc(O)cc(O)c12 [Genistein]
remaining activity at 1.25 µM ([1]; Well no.=573): 95% | remaining activity at 1.25 µM ([1]; Well no.=3315): 94.8% | remaining activity at 1.25 µM ([1]; Well no.=3947): 98.6% | remaining activity at 1.25 µM ([1]; Well no.=6492): 103% | remaining activity at 3.75 µM ([2]; Well no.=573): 94% | remaining activity at 3.75 µM ([2]; Well no.=3315): 101% | remaining activity at 3.75 µM ([2]; Well no.=3947): 98.5% | remaining activity at 3.75 µM ([2]; Well no.=6492): 103%

CCn1cc(C(=O)O)c(=O)c2ccc(C)nc21 [Nalidixic acid sodium]
remaining activity at 1.25 µM ([1]; Well no.=951): 101% | remaining activity at 3.75 µM ([2]; Well no.=951): 102%

C[C@H]1c2cccc(O)c2C(=O)C2=C(O)[C@]3(O)C(=O)C(C(N)=O)=C(O)[C@@H](N(C)C)[C@@H]3[C@@H](O)[C@@H]21 [Doxycycline]
remaining activity at 1.25 µM ([1]; Well no.=2022): 106% | remaining activity at 3.75 µM ([2]; Well no.=2022): 107%

COc1ccccc1CNCCCCCCNCCCCCCCCNCCCCCCNCc1ccccc1OC [Methoctramine tetrahydrochloride]
remaining activity at 1.25 µM ([1]; Well no.=1085): 102% | remaining activity at 3.75 µM ([2]; Well no.=1085): 102%

CC(=O)O[C@H]1[C@H]2[C@@H](OC(=O)Cc3ccccc3)[C@@H](C)C[C@]2(OC(C)=O)C(=O)/C(C)=C/[C@@H]2[C@H](CC[C@@]13CO3)C2(C)C [Euphorbiasteroid]
remaining activity at 1.25 µM ([1]; Well no.=3605): 103% | remaining activity at 3.75 µM ([2]; Well no.=3605): 109%
